“Also recorded” adds a separate entry of the source.
Columns and labels:
[1] = Solid form interconversion studies (slurry, XRPD); type: physicochemical; conditions: EQ in acetone:ethanol (1:1) at 25 °C, at least 2 days
Method: Interconversion Studies. Interconversion experiments were performed by making slurries of a solid form in a saturated solvent. The slurries were agitated for at least 2 days at about 25 °C. The saturated solution was removed by filtration and the solid was dried in the air.

[2] = Solid form stability studies (XRPD); type: physicochemical
Method: Stability Studies. The stabilities of Forms A, B, C and D were studied by exposing the solid samples to the stress condition of 40 °C / 75% RH for four weeks. Moreover, the stabilities of Forms A, B, C and D in different solvents were studied by equilibration in different solvents at 40 °C for four weeks. The slurries then were filtered and dried in the air. Solid samples obtained from the stability experiments were analyzed by XRPD and DSC.

[3] = Compression studies (2000 psi, XRPD); conditions: 2000 psi for at least one minute
[4] = Hygroscopicity studies (DVS moisture sorption/desorption); type: physicochemical; conditions: for solid-state transformation after full adsorption/desorption cycle (XRPD): DVS, 0% to 95% RH and back; for mass change of the starting mass of the sample: RH increased from about 0% to about 95% RH, about 25 °C; for hygroscopicity: moisture sorption analysis, 0% to 95% RH
Method: Hygroscopicity studies. The hygroscopicity of various solid forms was studied using a Surface Measurement Systems DVS instrument. Typically a sample size of between about 10-50 mg was loaded into the DVS instrument sample pan and the sample was analyzed on a DVS automated sorption analyzer at about 25 °C. The relative humidity was increased in increments of about 10% from about 0% to about 95% RH. The relative humidity was then decreased in a similar manner to accomplish a full adsorption/desorption cycle. The mass was recorded at periodic intervals throughout the experiment.

[5] = EQ in ethanol at 40 °C for 4 weeks
[6] = EQ in heptane at 40 °C for 4 weeks
[7] = EQ in toluene at 40 °C for 4 weeks
[8] = EQ in water at 40 °C for 4 weeks

Row | SMILES | Analysis by XRPD (resulting form) [1] | Analysis by XRPD (resulting form) ([2]; 40 °C / 75% RH, 4 weeks) | Analysis by XRPD (resulting form) [2, 5] | Analysis by XRPD (resulting form) [2, 6] | Analysis by XRPD (resulting form) [2, 7] | Analysis by XRPD (resulting form) [2, 8] | physical stability upon compression (XRPD) [3] | solid-state transformation after full adsorption/desorption cycle (XRPD) [4] | mass change of the starting mass of the sample [4] | hygroscopicity [4]
1 | CCOc1cc(C(CS(C)(=O)=O)N2C(=O)c3cccc(NC(C)=O)c3C2=O)ccc1OC (single isomer, unassigned; (+)) [Form A, (+)-2-[1-(3-ethoxy-4-methoxyphenyl)-2-methylsulfonylethyl]-4-acetylaminoisoindoline-1,3-dione] | Form B | stable | stable | stable | converts to Form C | stable | substantially physically stable | none of the forms analyzed underwent substantial solid-state transformation | about 0.4% | substantially nonhygroscopic
2 | CCOc1cc(C(CS(C)(=O)=O)N2C(=O)c3cccc(NC(C)=O)c3C2=O)ccc1OC (single isomer, unassigned; (+)) [Form B, (+)-2-[1-(3-ethoxy-4-methoxyphenyl)-2-methylsulfonylethyl]-4-acetylaminoisoindoline-1,3-dione] | – | stable | stable | stable | converts to Form C | stable | substantially physically stable | none of the forms analyzed underwent substantial solid-state transformation | about 0.6% | substantially nonhygroscopic
3 | CCOc1cc(C(CS(C)(=O)=O)N2C(=O)c3cccc(NC(C)=O)c3C2=O)ccc1OC (single isomer, unassigned; (+)) [Form C, (+)-2-[1-(3-ethoxy-4-methoxyphenyl)-2-methylsulfonylethyl]-4-acetylaminoisoindoline-1,3-dione] | Form C | stable | stable | stable | stable | stable | substantially physically stable | none of the forms analyzed underwent substantial solid-state transformation | about 0.5% | substantially nonhygroscopic
4 | CCOc1cc(C(CS(C)(=O)=O)N2C(=O)c3cccc(NC(C)=O)c3C2=O)ccc1OC (single isomer, unassigned; (+)) [Form E, (+)-2-[1-(3-ethoxy-4-methoxyphenyl)-2-methylsulfonylethyl]-4-acetylaminoisoindoline-1,3-dione] | Form B | – | – | – | – | – | – | none of the forms analyzed underwent substantial solid-state transformation | about 5.1% | hygroscopic
5 | CCOc1cc(C(CS(C)(=O)=O)N2C(=O)c3cccc(NC(C)=O)c3C2=O)ccc1OC (single isomer, unassigned; (+)) [Form F, (+)-2-[1-(3-ethoxy-4-methoxyphenyl)-2-methylsulfonylethyl]-4-acetylaminoisoindoline-1,3-dione] | stable; also recorded: Form F | – | – | – | – | – | – | none of the forms analyzed underwent substantial solid-state transformation | about 0.2% | substantially nonhygroscopic
6 | CCOc1cc(C(CS(C)(=O)=O)N2C(=O)c3cccc(NC(C)=O)c3C2=O)ccc1OC (single isomer, unassigned; (+)) [Form G, (+)-2-[1-(3-ethoxy-4-methoxyphenyl)-2-methylsulfonylethyl]-4-acetylaminoisoindoline-1,3-dione] | converts to Form B | – | – | – | – | – | – | none of the forms analyzed underwent substantial solid-state transformation | about 0.4% | substantially nonhygroscopic

Source: patent EP2687213B1, “Solid forms comprising (+)-2-[1-(3-ethoxy-4-methoxyphenyl)-2-methylsulfonylethyl]-4-acetylaminoisoindoline-1,3-dione, compositions thereof, and uses thereof” (CELGENE CORPORATION, priority 2008, dated 2009)
